The record followed here is patent publication US12479838B2, “D3 receptor agonist compounds; methods of preparation; intermediates thereof; and methods of use thereof” (THE UNITED STATES OF AMERICA, AS REPRESENTED BY THE …, priority 2019, dated 2025).

Each structure is given as a SMILES string. Where two headings read alike, the source gives them in different places.

Test [1] has as its target human D2LR (Homo sapiens (Human), UniProt P14416). Briefly: Radioligand competition binding vs. [3H]-(R)-(+)-7-OH-DPAT, hD2R. The following applies: vs. [3H]-(R)-(+)-7-OH-DPAT, HEK293 cells stably expressing hD2R, read-out: D2R Ki ± SEM. A general note: Loss of bound radioactivity is the signal in a displacement assay; it reports binding, not function.
Test [2] concerns the target human D3R (Homo sapiens (Human), UniProt P35462). As to the kind of experiment: Radioligand competition binding vs. [3H]-(R)-(+)-7-OH-DPAT, hD3R. To be noted: vs. [3H]-(R)-(+)-7-OH-DPAT; for D2R/D3R: ratio of Ki, D3R selectivity over D2R; for Ki: HEK293 cells stably expressing hD3R, read-out: D3R Ki ± SEM.

Chain of human D2LR (P14416 whole entry): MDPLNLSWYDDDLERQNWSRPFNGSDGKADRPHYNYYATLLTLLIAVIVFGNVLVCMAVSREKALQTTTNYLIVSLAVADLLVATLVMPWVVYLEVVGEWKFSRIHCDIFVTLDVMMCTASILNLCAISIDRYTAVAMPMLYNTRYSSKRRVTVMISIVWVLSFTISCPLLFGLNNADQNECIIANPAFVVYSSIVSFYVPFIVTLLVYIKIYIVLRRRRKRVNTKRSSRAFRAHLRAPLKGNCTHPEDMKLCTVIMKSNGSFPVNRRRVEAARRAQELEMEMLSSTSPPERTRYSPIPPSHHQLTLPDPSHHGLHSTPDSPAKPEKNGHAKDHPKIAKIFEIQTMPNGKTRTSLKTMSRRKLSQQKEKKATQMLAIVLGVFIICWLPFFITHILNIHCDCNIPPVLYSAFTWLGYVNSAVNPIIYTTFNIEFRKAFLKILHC
Chain of human D3R (P35462 whole entry): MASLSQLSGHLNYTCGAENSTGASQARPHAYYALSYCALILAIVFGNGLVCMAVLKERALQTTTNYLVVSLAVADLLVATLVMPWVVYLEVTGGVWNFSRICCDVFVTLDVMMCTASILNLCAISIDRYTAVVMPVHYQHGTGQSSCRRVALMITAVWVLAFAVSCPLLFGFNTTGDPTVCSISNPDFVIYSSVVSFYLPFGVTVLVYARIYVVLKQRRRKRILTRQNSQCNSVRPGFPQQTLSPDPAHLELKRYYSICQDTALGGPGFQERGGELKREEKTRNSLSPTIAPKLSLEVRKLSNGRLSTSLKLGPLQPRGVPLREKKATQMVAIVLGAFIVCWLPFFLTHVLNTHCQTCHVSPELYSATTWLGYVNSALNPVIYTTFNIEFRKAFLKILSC

With `C[C@H]1CO[C@@H](c2ccc(N)nc2)CN1CC1CC1CNC(=O)c1cc2ccccc2[nH]1` (stereo partly drawn) [trans-AB05-27B, trans-N-((2-(((2S,5S)-2-(6-aminopyridin-3-yl)-5-methylmorpholino)methyl)cyclopropyl)methyl)-1H-indole-2-carboxamide], the values for the Ki in test [1], in test [2] (listed as AB05-27B) and in test [2] were 0.707 ± 0.0198 µM, 0.404 µM and 0.404 ± 0.034 µM, respectively. Moreover, in test [2], the D2R/D3R stood at 1.75.

Regarding `C[C@H]1CO[C@@H](c2ccc(N)nc2)CN1C/C=C/COc1ccc2c(c1)NC(=O)CC2` [FOB01-44, 7-(((E)-4-((2S,5S)-2-(6-aminopyridin-3-yl)-5-methylmorpholino)but-2-en-1-yl)oxy)-3,4-dihydroquinolin-2(1H)-one], in test [1], the Ki turned out to be 0.341 ± 0.0276 µM. Besides, in test [2], the D2R/D3R is listed as 0.297 and the Ki stood at 1.15 µM.

As to `C[C@H]1CO[C@H](c2ccc(N)nc2)CN1CC1CC1CNC(=O)c1cc2ccccc2[nH]1` (stereo partly drawn) [cis-FOB01-60B, cis-N-((2-(((2R,5S)-2-(6-aminopyridin-3-yl)-5-methylmorpholino)methyl)cyclopropyl)methyl)-1H-indole-2-carboxamide], in test [1], the Ki stood at 7.73 µM. In test [2], the D2R/D3R came out at 0.235 and the Ki stood at 32.9 µM.

For `O=C1CCc2ccc(OCCCCN3CCO[C@@H]4c5cc(O)ccc5OC[C@H]43)cc2N1` [SLC02-11, 7-(4-((4aR,10bR)-9-hydroxy-2,3,4a,10b-tetrahydro-4H,5H-chromeno[4,3-b][1,4]oxazin-4-yl)butoxy)-3,4-dihydroquinolin-2(1H)-one], the Ki in test [1] came out at 6.26 µM. For the same compound, in test [2], the D2R/D3R worked out at 0.554 and the Ki worked out at 11.3 µM.

For `C[C@H]1CO[C@H](c2ccc(N)nc2)CN1CC1CC1CNC(=O)c1cc2ccccc2[nH]1` (stereo partly drawn) [cis-FOB01-60A, cis-N-((2-(((2R,5S)-2-(6-aminopyridin-3-yl)-5-methylmorpholino)methyl)cyclopropyl)methyl)-1H-indole-2-carboxamide], the results for the Ki in test [1] and in test [2] were 11.3 µM and 26.2 µM, respectively. In addition, in test [2], the D2R/D3R is 0.431.

Take `C[C@H]1CO[C@@H](c2ccc(N)nc2)CN1CCCCOc1ccc2c(c1)NC(=O)CC2` [AB04-96, 7-(4-((2S,5S)-2-(6-aminopyridin-3-yl)-5-methylmorpholino)butoxy)-3,4-dihydroquinolin-2(1H)-one]: the Ki in test [1] stood at 0.0346 ± 0.00486 µM. Besides, in test [2], the D2R/D3R came out at 1.11; the “D3R affinity, fold better than its (2R,5S) diastereoisomer” value worked out at 775 fold; the Ki is 0.0312 ± 0.00872 µM.

`C[C@H]1CO[C@H](c2ccc(N)nc2)CN1C/C=C/COc1ccc2c(c1)NC(=O)CC2` [FOB01-42, 7-(((E)-4-((2R,5S)-2-(6-aminopyridin-3-yl)-5-methylmorpholino)but-2-en-1-yl)oxy)-3,4-dihydroquinolin-2(1H)-one]: in test [1], the Ki is 21.1 µM. Also, in test [2], the D2R/D3R stood at 0.289 and the Ki was found to be 73 µM.

For the compound `CCCN1CCO[C@@H]2c3cc(OCCCCNC(=O)c4cc5ccccc5[nH]4)ccc3OC[C@H]21` [SLC01-25, N-(4-(((4aR,10bR)-4-propyl-3,4,4a,10b-tetrahydro-2H,5H-chromeno[4,3-b][1,4]oxazin-9-yl)oxy)butyl)-1H-indole-2-carboxamide], in test [1], the inhibition constant Ki came to 3.86 µM. Also, in test [2], the D2R/D3R came to 6.30 and the Ki was 0.613 ± 0.0506 µM.

Turning to `CCCN1CCO[C@@H]2c3cc(OCCCCNC(=O)c4cc5ccccc5o4)ccc3OC[C@H]21` [SLC01-26, N-(4-(((4aR,10bR)-4-propyl-3,4,4a,10b-tetrahydro-2H,5H-chromeno[4,3-b][1,4]oxazin-9-yl)oxy)butyl)benzofuran-2-carboxamide], the figures for the Ki in test [1] and in test [2] were 9.45 µM and 6.01 µM, respectively. Besides, the D2R/D3R in test [2] came to 1.57.

Consider `CCCN1CCO[C@@H]2c3cc(OCCCCNC(=O)c4cc5cccnc5[nH]4)ccc3OC[C@H]21` [AB04-42, N-(4-(((4aR,10bR)-4-propyl-3,4,4a,10b-tetrahydro-2H,5H-chromeno[4,3-b][1,4]oxazin-9-yl)oxy)butyl)-1H-pyrrolo[2,3-b]pyridine-2-carboxamide], for which, in test [1], the Ki turned out to be 27 µM. Also, in test [2], the D2R/D3R is 3.12 and the Ki came to 8.66 µM.

Take `C[C@H]1CO[C@@H](c2ccc(N)nc2)CN1CC1CC1CNC(=O)c1cc2ccccc2[nH]1` (stereo partly drawn) [trans-AB05-27A, trans-N-((2-(((2S,5S)-2-(6-aminopyridin-3-yl)-5-methylmorpholino)methyl)cyclopropyl)methyl)-1H-indole-2-carboxamide]: the Ki in test [1] (listed as AB05-27A) is 0.216 µM; in test [1], 0.216 ± 0.0326 µM; in test [2] it was 1.19 µM. Also, the D2R/D3R in test [2] turned out to be 0.182.

Turning to `CCCN1CCO[C@@H]2c3cc(OCCCCNC(=O)c4ccc5c(c4)Cc4ccccc4-5)ccc3OC[C@H]21` [SLC01-24, N-(4-(((4aR,10bR)-4-propyl-3,4,4a,10b-tetrahydro-2H,5H-chromeno[4,3-b][1,4]oxazin-9-yl)oxy)butyl)-9H-fluorene-2-carboxamide], the values for the Ki in test [1] and in test [2] were 6.71 µM and 0.806 ± 0.185 µM, respectively. Moreover, the D2R/D3R in test [2] came to 8.33.

`C[C@H]1CO[C@H](c2ccc(N)nc2)CN1CC1CC1CNC(=O)c1cc2ccccc2[nH]1` (mixture of isomers) [rac-trans-AB05-26, trans-N-((2-(((2R,5S)-2-(6-aminopyridin-3-yl)-5-methylmorpholino)methyl)cyclopropyl)methyl)-1H-indole-2-carboxamide]: in test [1], the Ki is 14.1 µM. In addition, in test [2], the D2R/D3R was 0.213 and the Ki amounted to 66.2 µM.

For `Oc1ccc2c(c1)[C@H]1OCCN[C@@H]1CO2` [AB04-75, (4aR,10bR)-3,4,4a,10b-tetrahydro-2H,5H-chromeno[4,3-b][1,4]oxazin-9-ol, reference compound], the results for the inhibitory constant (Ki) in test [1] and in test [2] were 4.25 µM and 0.403 ± 0.00555 µM, respectively. In addition, the D2R/D3R in test [2] is 10.5.

For `CCCN1CCO[C@@H]2c3cc(OCCCCNC(=O)c4ccc5scnc5c4)ccc3OC[C@H]21` [AB04-41, N-(4-(((4aR,10bR)-4-propyl-3,4,4a,10b-tetrahydro-2H,5H-chromeno[4,3-b][1,4]oxazin-9-yl)oxy)butyl)benzo[d]thiazole-5-carboxamide], in test [1], the Ki came to 9.16 µM. Further, in test [2], the D2R/D3R stood at 4.30 and the Ki came out at 2.13 µM.

On to `O=C(NCCCCNC1COc2ccc(O)cc2C1=O)c1cc2ccccc2[nH]1` (single isomer, unassigned) [SLC02-16A, N-(4-((6-hydroxy-4-oxochroman-3-yl)amino)butyl)-1H-indole-2-carboxamide], for which, in test [1], the Ki turned out to be 0.245 ± 0.032 µM. Besides, in test [2], the D2R/D3R was determined as 0.710 and the Ki came to 0.354 ± 0.0451 µM.

Consider `O=C(NCCCCNC1COc2ccc(O)cc2C1=O)c1cc2ccccc2[nH]1` (single isomer, unassigned) [SLC02-16B, N-(4-((6-hydroxy-4-oxochroman-3-yl)amino)butyl)-1H-indole-2-carboxamide], for which the Ki in test [1] amounted to 1.43 µM. Moreover, in test [2], the D2R/D3R amounted to 0.808 and the inhibition constant (Ki) came out at 1.77 µM.

Regarding `CCCN1CCO[C@@H]2c3cc(OCCCCOc4ccc5c(c4)NC(=O)CC5)ccc3OC[C@H]21` [AB04-38, 7-(4-(((4aR,10bR)-4-propyl-3,4,4a,10b-tetrahydro-2H,5H-chromeno[4,3-b][1,4]oxazin-9-yl)oxy)butoxy)-3,4-dihydroquinolin-2(1H)-one], the Ki in test [1] amounted to 10.1 µM. In test [2], the D2R/D3R was found to be 6.35 and the Ki turned out to be 1.59 µM.

On to `C[C@H]1CO[C@@H](c2ccc(N)nc2)CN1` [AB04-85B, 5-((2S,5S)-5-methylmorpholin-2-yl)pyridin-2-amine], for which the Ki in test [1] was 2.34 µM. Moreover, in test [2], the D2R/D3R worked out at 5.52 and the Ki came out at 0.424 ± 0.0324 µM.

Turning to `CCCN(CCC)c1ccc(C2CN(CCC)C(C)CO2)cn1` (centres unmarked) [AB03-14], the Ki in test [1] was more than 5 µM; in test [2] it was more than 10 µM.

In the case of `C[C@H]1CO[C@H](c2ccc(N)nc2)CN1` [AB04-85A, 5-((2R,5S)-5-methylmorpholin-2-yl)pyridin-2-amine], the Ki in test [1] was found to be 7.1 µM; in test [2], 1.52 µM. Besides, in test [2], the D2R/D3R is recorded as 4.67.

Turning to `C[C@H]1CO[C@@H](c2ccc(N)nc2)CN1CC1CC1CNC(=O)c1cc2ccccc2[nH]1` (stereo partly drawn) [cis-FOB01-59B, cis-N-((2-(((2S,5S)-2-(6-aminopyridin-3-yl)-5-methylmorpholino)methyl)cyclopropyl)methyl)-1H-indole-2-carboxamide], the Ki in test [1] was 0.12 ± 0.0166 µM. In addition, in test [2], the D2R/D3R is 0.435 and the Ki was found to be 0.276 ± 0.03 µM.

Take `CCCN1CCO[C@@H]2c3cc(OCCCCN4C(=O)c5ccccc5C4=O)ccc3OC[C@H]21` [AB02-119]: the Ki in test [1] worked out at 2.51 µM; in test [2] it was 1.19 µM. The D2R/D3R in test [2] turned out to be 2.11.

Regarding `C[C@H]1CO[C@@H](c2ccc(N)nc2)CN1CC1CC1CNC(=O)c1cc2ccccc2[nH]1` (stereo partly drawn) [cis-FOB01-59A, cis-N-((2-(((2S,5S)-2-(6-aminopyridin-3-yl)-5-methylmorpholino)methyl)cyclopropyl)methyl)-1H-indole-2-carboxamide], the Ki in test [1] was 1.07 µM. Further, in test [2], the D2R/D3R is on record as 0.498 and the Ki is 2.15 µM.

In the case of `CCCN1CCO[C@@H]2c3cc(OCCCCNC(=O)c4nc5ccccc5s4)ccc3OC[C@H]21` [SLC01-35, N-(4-(((4aR,10bR)-4-propyl-3,4,4a,10b-tetrahydro-2H,5H-chromeno[4,3-b][1,4]oxazin-9-yl)oxy)butyl)benzo[d]thiazole-2-carboxamide], the Ki in test [1] came out at 5.51 µM. Also, in test [2], the D2R/D3R worked out at 4.14 and the Ki came out at 1.33 µM.

In general, Ki refers to a measure of affinity in units of concentration, obtained from inhibition or displacement.
